Data from article PMC12454493, “Insight on novel sulfamoylphenyl pyrazole derivatives as anticancer carbonic anhydrase inhibitors” (Molecular Diversity, 2024).

Experiments:
Type in all cases: cell-based
PC-3 = assay: NCI-60 one-dose SRB screen (Prostate Cancer); settings: Homo sapiens, single dose 10 µM, 48 h, read-out: Growth inhibition percent (GI %)
Experimental: (§1) The National Cancer Institute (NCI) Developmental Therapeutic Program (www.dtp.nci.nih.gov) selected the 20 novel synthesized compounds 4a-e, 5a-e, 6a-c, 9a-e, 10 and 11 to test for their anticancer activity at a single dose of 10 µM using SRB assay. […] Supplementary Data S3; Table S1 presents the detailed screening results of the most promising compounds. The preliminary screening’s detailed results for the remaining compounds are elucidated in the (Supplementary Data S3; Table S2).
(§2) The guidelines of the Drug Evaluation Branch’s protocol at the NCI in Bethesda served as the basis for the in vitro anticancer screening assays. at one dose 10 µM against a panel of 60 cancer cell lines. The human tumor cell lines used belonged to nine panels: leukemia, melanoma, lung, colon, CNS, ovarian, renal, prostate and breast cancers using the sulforhodamine B (SRB) assay in a 48 h drug exposure protocol.

DU-145 = assay: NCI-60 one-dose SRB screen (Prostate Cancer); settings: Homo sapiens, single dose 10 µM, 48 h, read-out: Growth inhibition percent (GI %)
Experimental: as §1, §2

M14 = assay: NCI-60 one-dose SRB screen (Melanoma); settings: Homo sapiens, single dose 10 µM, 48 h, read-out: Growth inhibition percent (GI %)
Experimental: as §1, §2

SK-MEL-28 = assay: NCI-60 one-dose SRB screen (Melanoma); settings: Homo sapiens, single dose 10 µM, 48 h, read-out: Growth inhibition percent (GI %)
Experimental: as §1, §2

MDA-MB-435 = assay: NCI-60 one-dose SRB screen (Melanoma); settings: Homo sapiens, single dose 10 µM, 48 h, read-out: Growth inhibition percent (GI %)
Experimental: as §1, §2

SK-MEL-5 = assay: NCI-60 one-dose SRB screen (Melanoma); settings: Homo sapiens, single dose 10 µM, 48 h, read-out: Growth inhibition percent (GI %)
Experimental: as §1, §2

SK-MEL-2 = assay: NCI-60 one-dose SRB screen (Melanoma); settings: Homo sapiens, single dose 10 µM, 48 h, read-out: Growth inhibition percent (GI %)
Experimental: as §1, §2

UACC-257 = assay: NCI-60 one-dose SRB screen (Melanoma); settings: Homo sapiens, single dose 10 µM, 48 h, read-out: Growth inhibition percent (GI %)
Experimental: as §1, §2

LOX IMVI = assay: NCI-60 one-dose SRB screen (Melanoma); settings: Homo sapiens, single dose 10 µM, 48 h, read-out: Growth inhibition percent (GI %)
Experimental: as §1, §2

MALME-3M = assay: NCI-60 one-dose SRB screen (Melanoma); settings: Homo sapiens, single dose 10 µM, 48 h, read-out: Growth inhibition percent (GI %)
Experimental: as §1, §2

UACC-62 = assay: NCI-60 one-dose SRB screen (Melanoma); settings: Homo sapiens, single dose 10 µM, 48 h, read-out: Growth inhibition percent (GI %)
Experimental: as §1, §2

OVCAR-8 = assay: NCI-60 one-dose SRB screen (Ovarian cancer); settings: Homo sapiens, single dose 10 µM, 48 h, read-out: Growth inhibition percent (GI %)
Experimental: as §1, §2

OVCAR-5 = assay: NCI-60 one-dose SRB screen (Ovarian cancer); settings: Homo sapiens, single dose 10 µM, 48 h, read-out: Growth inhibition percent (GI %)
Experimental: as §1, §2

OVCAR-3 = assay: NCI-60 one-dose SRB screen (Ovarian cancer); settings: Homo sapiens, single dose 10 µM, 48 h, read-out: Growth inhibition percent (GI %)
Experimental: as §1, §2

OVCAR-4 = assay: NCI-60 one-dose SRB screen (Ovarian cancer); settings: Homo sapiens, single dose 10 µM, 48 h, read-out: Growth inhibition percent (GI %)
Experimental: as §1, §2

IGROV1 = assay: NCI-60 one-dose SRB screen (Ovarian cancer); settings: Homo sapiens, IGROV-1, single dose 10 µM, 48 h, read-out: Growth inhibition percent (GI %)
Experimental: as §1, §2

SK-OV-3 = assay: NCI-60 one-dose SRB screen (Ovarian cancer); settings: Homo sapiens, single dose 10 µM, 48 h, read-out: Growth inhibition percent (GI %)
Experimental: as §1, §2

NCI/ADR-RES = assay: NCI-60 one-dose SRB screen (Ovarian cancer); settings: Homo sapiens, single dose 10 µM, 48 h, read-out: Growth inhibition percent (GI %)
Experimental: as §1, §2

UO-31 = assay: NCI-60 one-dose SRB screen (Renal Cancer); settings: Homo sapiens, single dose 10 µM, 48 h, read-out: Growth inhibition percent (GI %)
Experimental: as §1, §2

786-0 = assay: NCI-60 one-dose SRB screen (Renal Cancer); settings: Homo sapiens, single dose 10 µM, 48 h, read-out: Growth inhibition percent (GI %)
Experimental: as §1, §2

CAKI-1 = assay: NCI-60 one-dose SRB screen (Renal Cancer); settings: Homo sapiens, single dose 10 µM, 48 h, read-out: Growth inhibition percent (GI %)
Experimental: as §1, §2

RXF 393 = assay: NCI-60 one-dose SRB screen (Renal Cancer); settings: Homo sapiens, single dose 10 µM, 48 h, read-out: Growth inhibition percent (GI %)
Experimental: as §1, §2

A498 = assay: NCI-60 one-dose SRB screen (Renal Cancer); settings: Homo sapiens, single dose 10 µM, 48 h, read-out: Growth inhibition percent (GI %)
Experimental: as §1, §2

TK-10 = assay: NCI-60 one-dose SRB screen (Renal Cancer); settings: Homo sapiens, single dose 10 µM, 48 h, read-out: Growth inhibition percent (GI %)
Experimental: as §1, §2

ACHN = assay: NCI-60 one-dose SRB screen (Renal Cancer); settings: Homo sapiens, single dose 10 µM, 48 h, read-out: Growth inhibition percent (GI %)
Experimental: as §1, §2

NCI-H322M = assay: NCI-60 one-dose SRB screen (Non-Small Cell Lung Cancer); settings: Homo sapiens, single dose 10 µM, 48 h, read-out: Growth inhibition percent (GI %)
Experimental: as §1, §2

NCI-H23 = assay: as above; settings: Homo sapiens, single dose 10 µM, 48 h, read-out: Growth inhibition percent (GI %)
Experimental: as §1, §2

EKVX = assay: as above; settings: Homo sapiens, single dose 10 µM, 48 h, read-out: Growth inhibition percent (GI %)
Experimental: as §1, §2

A549/ATCC = assay: as above; settings: Homo sapiens, single dose 10 µM, 48 h, read-out: Growth inhibition percent (GI %)
Experimental: as §1, §2

HOP-92 = assay: as above; settings: Homo sapiens, single dose 10 µM, 48 h, read-out: Growth inhibition percent (GI %)
Experimental: as §1, §2

Question: Which inhibition at 10 µM (PC-3) does the source give for `COc1ccc(-c2nn(-c3ccc(S(N)(=O)=O)cc3)cc2C(=O)NNC(N)=S)cc1` [Compound 9c, 2-[3-(4-Methoxyphenyl)-1-(4-sulfamoylphenyl)-1H-pyrazole-4-carbonyl] hydrazine-1-carbothioamide] here?
Answer: < 5%

Question: And the inhibition at 10 µM (DU-145)?
Answer: < 5%

Question: And the inhibition at 10 µM (M14)?
Answer: < 5%

Question: What about the inhibition at 10 µM (SK-MEL-28) of the same compound?
Answer: < 5%

Question: What about the inhibition at 10 µM (MDA-MB-435) of the same compound?
Answer: < 5%

Question: What about the inhibition at 10 µM (SK-MEL-5) of the same compound?
Answer: < 5%

Question: And the inhibition at 10 µM (SK-MEL-2)?
Answer: < 5%

Question: And the inhibition at 10 µM (UACC-257)?
Answer: < 5%

Question: And the inhibition at 10 µM (LOX IMVI)?
Answer: < 5%

Question: And the inhibition at 10 µM (MALME-3M)?
Answer: < 5%

Question: And the inhibition at 10 µM (UACC-62)?
Answer: 8.41%

Question: What about the inhibition at 10 µM (OVCAR-8) of the same compound?
Answer: < 5%

Question: And the inhibition at 10 µM (OVCAR-5)?
Answer: < 5%

Question: And the inhibition at 10 µM (OVCAR-3)?
Answer: < 5%

Question: And the inhibition at 10 µM (OVCAR-4)?
Answer: < 5%

Question: What about the inhibition at 10 µM (IGROV1) of the same compound?
Answer: < 5%

Question: And the inhibition at 10 µM (SK-OV-3)?
Answer: < 5%

Question: What about the inhibition at 10 µM (NCI/ADR-RES) of the same compound?
Answer: < 5%

Question: And the inhibition at 10 µM (UO-31)?
Answer: < 5%

Question: What about the inhibition at 10 µM (786-0) of the same compound?
Answer: < 5%

Question: What about the inhibition at 10 µM (CAKI-1) of the same compound?
Answer: < 5%

Question: What about the inhibition at 10 µM (RXF 393) of the same compound?
Answer: < 5%

Question: What about the inhibition at 10 µM (A498) of the same compound?
Answer: < 5%

Question: What about the inhibition at 10 µM (TK-10) of the same compound?
Answer: < 5%

Question: And the inhibition at 10 µM (ACHN)?
Answer: < 5%

Question: And the inhibition at 10 µM (NCI-H322M)?
Answer: < 5%

Question: And the inhibition at 10 µM (NCI-H23)?
Answer: < 5%

Question: What about the inhibition at 10 µM (EKVX) of the same compound?
Answer: < 5%

Question: And the inhibition at 10 µM (A549/ATCC)?
Answer: < 5%

Question: And the inhibition at 10 µM (HOP-92)?
Answer: < 5%
